Test results taken from BindingDB's records for doi:10.1111/cbdd.12663 (West China Hospital, 2016).

Experiments:
Test in all cases: DPP-IV Inhibition Screening Assay
[1] = molecular target: Dipeptidyl peptidase 4 [K6R,T557I] (Homo sapiens, UniProt P27487, K6R/T557I)
Method: (§1) DPP-IV inhibition was measured by DPP-IV inhibitor screening assay kit (Cayman Chemical Company, Item No. 700210) following the manufacturer's instructions. Briefly, solutions of test compounds at varying concentrations were prepared in dimethyl sulfoxide (DMSO) and then diluted into assay buffer. Human recombinant DPP-IV was added to the dilutions and preincubated for 30 min at 37 °C before the reaction was initiated by the addition of fluorogenic substrate solution AMC (Gly-Pro-Aminomethylcoumarin). Human recombinant DPP-8 or DPP-9 was added to the dilutions and preincubated for 10 min at 22 °C before the reaction was initiated by the addition of fluorogenic DPP substrate. The kinetics of the reaction wasmonitored (excitation at 380 nm, emission at 460 nm).

Dipeptidyl peptidase 9 = Dipeptidyl peptidase 9 (Homo sapiens, UniProt Q86TI2)
Sequence of Dipeptidyl peptidase 9 (Q86TI2 whole entry): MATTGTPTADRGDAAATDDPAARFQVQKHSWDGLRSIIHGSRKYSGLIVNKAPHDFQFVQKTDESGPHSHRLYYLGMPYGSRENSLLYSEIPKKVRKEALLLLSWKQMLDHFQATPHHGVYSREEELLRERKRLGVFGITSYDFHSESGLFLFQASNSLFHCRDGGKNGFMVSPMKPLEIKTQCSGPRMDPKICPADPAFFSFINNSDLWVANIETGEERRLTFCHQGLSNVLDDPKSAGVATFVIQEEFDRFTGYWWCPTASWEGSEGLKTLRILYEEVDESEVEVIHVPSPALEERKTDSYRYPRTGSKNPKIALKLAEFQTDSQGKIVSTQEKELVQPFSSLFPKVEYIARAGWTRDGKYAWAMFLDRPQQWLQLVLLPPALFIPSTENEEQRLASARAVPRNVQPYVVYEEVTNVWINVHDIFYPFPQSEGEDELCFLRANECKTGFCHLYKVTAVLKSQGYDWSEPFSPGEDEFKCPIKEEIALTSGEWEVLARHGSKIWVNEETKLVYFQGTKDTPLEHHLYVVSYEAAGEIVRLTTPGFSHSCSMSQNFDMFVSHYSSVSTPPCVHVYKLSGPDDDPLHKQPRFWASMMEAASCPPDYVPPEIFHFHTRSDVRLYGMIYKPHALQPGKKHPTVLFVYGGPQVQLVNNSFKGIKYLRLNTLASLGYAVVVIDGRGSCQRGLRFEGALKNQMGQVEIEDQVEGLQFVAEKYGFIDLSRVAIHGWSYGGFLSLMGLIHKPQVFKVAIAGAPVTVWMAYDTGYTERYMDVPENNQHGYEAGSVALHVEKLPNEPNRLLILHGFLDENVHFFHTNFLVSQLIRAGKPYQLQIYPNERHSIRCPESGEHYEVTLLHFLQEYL
Method: as §1

Dipeptidyl peptidase 8 = Dipeptidyl peptidase 8 (Homo sapiens, UniProt Q6V1X1)
Sequence of Dipeptidyl peptidase 8 (Q6V1X1 whole entry): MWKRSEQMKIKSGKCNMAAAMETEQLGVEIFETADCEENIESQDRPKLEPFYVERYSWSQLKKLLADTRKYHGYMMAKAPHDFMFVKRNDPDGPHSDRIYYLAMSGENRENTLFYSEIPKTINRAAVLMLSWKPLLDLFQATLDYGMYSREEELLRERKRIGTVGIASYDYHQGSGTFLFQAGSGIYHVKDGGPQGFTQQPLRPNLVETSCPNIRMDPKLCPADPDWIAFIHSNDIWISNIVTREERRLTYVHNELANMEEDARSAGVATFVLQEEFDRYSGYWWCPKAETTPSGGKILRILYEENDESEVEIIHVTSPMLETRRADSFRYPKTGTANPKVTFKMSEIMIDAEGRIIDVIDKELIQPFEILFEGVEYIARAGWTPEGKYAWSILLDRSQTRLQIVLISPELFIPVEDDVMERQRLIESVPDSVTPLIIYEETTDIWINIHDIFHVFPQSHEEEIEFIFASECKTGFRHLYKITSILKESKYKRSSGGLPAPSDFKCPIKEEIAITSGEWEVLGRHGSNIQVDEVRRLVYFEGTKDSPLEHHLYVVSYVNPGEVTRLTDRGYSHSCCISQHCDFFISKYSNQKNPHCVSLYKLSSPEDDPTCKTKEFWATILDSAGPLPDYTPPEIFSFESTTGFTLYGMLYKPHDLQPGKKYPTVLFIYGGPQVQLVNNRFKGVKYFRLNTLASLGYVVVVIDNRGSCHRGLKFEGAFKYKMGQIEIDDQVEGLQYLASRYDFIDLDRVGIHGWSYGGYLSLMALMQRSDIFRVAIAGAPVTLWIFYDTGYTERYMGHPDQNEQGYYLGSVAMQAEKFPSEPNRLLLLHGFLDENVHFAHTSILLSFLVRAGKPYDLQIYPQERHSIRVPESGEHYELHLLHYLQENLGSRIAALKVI
Method: as §1

Sequence of Dipeptidyl peptidase 4 [K6R,T557I] (P27487 whole entry K6R/T557I/D663E): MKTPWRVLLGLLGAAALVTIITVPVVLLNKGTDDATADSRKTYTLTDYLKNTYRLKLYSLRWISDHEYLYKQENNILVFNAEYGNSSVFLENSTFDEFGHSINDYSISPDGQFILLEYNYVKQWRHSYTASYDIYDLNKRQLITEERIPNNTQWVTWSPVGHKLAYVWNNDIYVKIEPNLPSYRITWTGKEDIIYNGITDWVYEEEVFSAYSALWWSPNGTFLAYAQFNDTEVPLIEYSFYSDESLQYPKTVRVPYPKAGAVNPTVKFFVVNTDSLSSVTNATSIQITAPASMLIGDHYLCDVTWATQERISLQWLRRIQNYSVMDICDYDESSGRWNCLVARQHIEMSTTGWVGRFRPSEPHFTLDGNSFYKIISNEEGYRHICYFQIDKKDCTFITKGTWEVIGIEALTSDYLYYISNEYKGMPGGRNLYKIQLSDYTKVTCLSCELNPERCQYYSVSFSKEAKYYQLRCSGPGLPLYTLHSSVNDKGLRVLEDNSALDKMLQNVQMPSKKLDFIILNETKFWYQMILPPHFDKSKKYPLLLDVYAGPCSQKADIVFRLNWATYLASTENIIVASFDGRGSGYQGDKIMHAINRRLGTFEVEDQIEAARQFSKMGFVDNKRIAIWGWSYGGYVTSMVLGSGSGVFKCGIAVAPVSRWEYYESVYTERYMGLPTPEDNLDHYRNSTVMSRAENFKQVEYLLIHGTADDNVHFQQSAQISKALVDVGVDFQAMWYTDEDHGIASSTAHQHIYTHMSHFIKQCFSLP

IC50 [1] | IC50 (Dipeptidyl peptidase 9) | IC50 (Dipeptidyl peptidase 8) | Compound
0.0235 µM | > 100 µM | > 100 µM | CC(C)=CCn1c(N2CCC[C@@H](N)C2)nc2c1c(=O)n(Cc1ccccc1C#N)c(=O)n2C [(R)-40]
0.0362 µM | > 100 µM | > 100 µM | CC(C)=CCn1c(N2CCC[C@@H](N)C2)nc2c1c(=O)n(Cc1nc3ccccc3s1)c(=O)n2C [(R)-43]
0.108 µM | > 100 µM | > 100 µM | CC(C)=CCn1c(N2CCC[C@H](N)C2)nc2c1c(=O)n(Cc1ccccc1C#N)c(=O)n2C [(S)-40]
0.0369 µM | > 100 µM | > 100 µM | CC(C)=CCn1c(N2CCC[C@H](N)C2)nc2c1c(=O)n(Cc1nc3ccccc3s1)c(=O)n2C [(S)-43]
